Data as given in patent US20070117743A1, “New antitumoral compounds” (priority 2003, published 2007).
Where a SMILES comes first, the peptide text is derived from it. Bridges are numbered along the chain shown (N, C = ends). [ ]: non-standard residue; d: D form. The star is where a group is joined. d(aIle) = CC[C@H](C)[C@@H](N)C(=O)O; d(aThr) = C[C@@H](O)[C@@H](N)C(=O)O; Hexanoyl(5-Me) = CC(C)CCCC(=O)*; Orn = NCCC[C@H](N)C(=O)O; Dhb = C/C=C(\N)C(=O)O

Experiments:
Assay type in all cases: cell-based, human
[1] = test system: HeLa-APL; experiment: SRB colorimetric assay of cell growth and viability, HeLa-APL; conditions: 48 hours exposure; for CC50: read-out: LC50 HELA-APL
[2] = test system: IGROV-1; experiment: SRB colorimetric assay of cell growth and viability, IGROV-1; conditions: 48 hours exposure
[3] = test system: SK-BR-3; experiment: SRB colorimetric assay of cell growth and viability, SK-BR-3; conditions: 48 hours exposure
[4] = test system: DU-145; experiment: SRB colorimetric assay of cell growth and viability, DU-145; conditions: 48 hours exposure
[5] = test system: HeLa; experiment: SRB colorimetric assay of cell growth and viability, HeLa; conditions: 48 hours exposure; for CC50: read-out: LC50 HELA
[6] = test system: LNCaP; experiment: SRB colorimetric assay of cell growth and viability, LNCaP; conditions: 48 hours exposure; for GI50: read-out: GI50 LN-caP; for CC50: read-out: LC50 LN-caP
[7] = test system: HT-29; experiment: SRB colorimetric assay of cell growth and viability, HT-29; conditions: 48 hours exposure; for GI50: read-out: GI50 HT-29; for CC50: read-out: LC50 HT-29
[8] = test system: A-549; experiment: SRB colorimetric assay of cell growth and viability, A-549; conditions: 48 hours exposure; for GI50: read-out: GI50 A-549; for CC50: read-out: LC50 A-549
[9] = test system: IGROV-ET; experiment: SRB colorimetric assay of cell growth and viability, IGROV-ET; conditions: 48 hours exposure; for CC50: read-out: LC50 IGROV-ET
[10] = test system: K-562; experiment: SRB colorimetric assay of cell growth and viability, K-562; conditions: 48 hours exposure; for CC50: read-out: LC50 K-562
[11] = test system: SK-MEL-28; experiment: SRB colorimetric assay of cell growth and viability, SK-MEL-28; conditions: 48 hours exposure; for CC50: read-out: LC50 MEL-28
[12] = test system: PANC-1; experiment: SRB colorimetric assay of cell growth and viability, PANC-1; conditions: 48 hours exposure; for CC50: read-out: LC50 PANC-1
[13] = test system: LoVo; experiment: SRB colorimetric assay of cell growth and viability, LoVo; conditions: 48 hours exposure; for CC50: read-out: LC50 LOVO

Row | SMILES | GI50 [1] | TGI HELA-APL [1] | CC50 [1] | GI50 [2] | LC50 (concentration causing 50% net cell killing) [2] | TGI IGROV [2] | GI50 [3] | LC50 [3] | TGI SK-BR-3 [3] | GI50 [4] | LC50 (concentration causing 50% net cell kill) [4] | TGI DU-145 [4] | GI50 [5] | TGI HELA [5] | CC50 [5] | GI50 [6] | CC50 [6] | TGI HT-29 [7] | GI50 [7] | CC50 [7] | other results
1 | C/C=C1\NC(=O)[C@H](Cc2ccccc2)NC(=O)[C@@H](C(C)C)NC(=O)[C@@H]([C@@H](C)CC)NC(=O)[C@H](NC(=O)[C@H](NC(=O)[C@H](CCCN)NC(=O)[C@H]2CCCN2C(=O)[C@H](NC(=O)[C@H](C)NC(=O)[C@@H](NC(=O)[C@H](NC(=O)CCCC(C)C)C(C)C)[C@@H](C)O)C(C)C)[C@@H](C)CC)[C@@H](C)OC(=O)[C@H](C(C)C)NC1=O [Compound 44, [Ala^11]-KF] ({Hexanoyl(5-Me)}-[dV]TA[dV][dP][Orn][d(aIle)][d(aThr)][d(aIle)][dV]F[Dhb]V; ester 8-C) | 3.18 µM | 6.90E−06 Molar | 6.9 µM | 1430 nM | 5.72 µM | 2.86E−06 Molar | 1190 nM | 5.3 µM | 2.52E−06 Molar | 3030 nM | 6.9 µM | 6.90E−06 Molar | 2.85 µM | 6.90E−06 Molar | 6.9 µM | 2780 nM | 6.9 µM | 2.61E−06 Molar | 1340 nM | 5.08 µM | TGI A-549 [8]: 6.90E−06 Molar; GI50 [8]: 2.69 µM; CC50 [8]: 6.9 µM; GI50 [9]: 1500 nM; TGI IGROV-ET [9]: 2.95E−06 Molar; CC50 [9]: 5.77 µM; GI50 [10]: 3.06 µM; TGI K-562 [10]: 6.90E−06 Molar; CC50 [10]: 6.9 µM; GI50 [11]: 3.69 µM; TGI MEL-28 [11]: 6.90E−06 Molar; CC50 [11]: 6.9 µM; GI50 [12]: 6.9 µM; TGI PANC-1 [12]: 6.90E−06 Molar; CC50 [12]: 6.9 µM; GI50 [13]: 973 nM; TGI LOVO [13]: 2.03E−06 Molar; CC50 [13]: 4.23 µM
2 | C/C=C1\NC(=O)[C@H](Cc2ccccc2)NC(=O)[C@@H](C(C)C)NC(=O)[C@@H]([C@@H](C)CC)NC(=O)[C@H](NC(=O)[C@H](NC(=O)[C@H](CCCN)NC(=O)[C@H]2CCCN2C(=O)[C@H](NC(=O)[C@H](CC(C)C)NC(=O)[C@@H](NC(=O)[C@H](NC(=O)CCCC(C)C)C(C)C)[C@@H](C)O)C(C)C)[C@@H](C)CC)[C@@H](C)OC(=O)[C@H](C(C)C)NC1=O [Compound 45, [Leu^11]-KF] ({Hexanoyl(5-Me)}-[dV]TL[dV][dP][Orn][d(aIle)][d(aThr)][d(aIle)][dV]F[Dhb]V; ester 8-C) | 0.912 µM | 1.94E−06 Molar | 4.13 µM | 332 nM | 4.02 µM | 1.23E−06 Molar | 163 nM | 1.68 µM | 4.10E−07 Molar | 731 nM | 3.54 µM | 1.61E−06 Molar | 0.938 µM | 2.16E−06 Molar | 4.98 µM | 1020 nM | 5.44 µM | 1.17E−06 Molar | 316 nM | 3.66 µM | TGI LN-caP [6]: 2.35E−06 Molar; TGI A-549 [8]: 1.90E−06 Molar; GI50 [8]: 0.925 µM; CC50 [8]: 3.93 µM; GI50 [9]: 421 nM; TGI IGROV-ET [9]: 1.30E−06 Molar; CC50 [9]: 3.69 µM; GI50 [10]: 1.49 µM; TGI K-562 [10]: 3.10E−06 Molar; CC50 [10]: ≥ 6.4 µM; GI50 [11]: 1.03 µM; TGI MEL-28 [11]: 2.05E−06 Molar; CC50 [11]: 4.11 µM; GI50 [12]: 2.32 µM; TGI PANC-1 [12]: 6.70E−06 Molar; CC50 [12]: 6.7 µM; GI50 [13]: 113 nM; TGI LOVO [13]: 2.32E−07 Molar; CC50 [13]: 0.476 µM
3 | C/C=C1\NC(=O)[C@H](Cc2ccccc2)NC(=O)[C@@H](C(C)C)NC(=O)[C@@H]([C@@H](C)CC)NC(=O)[C@H](NC(=O)[C@H](NC(=O)[C@H](CCCN)NC(=O)[C@H]2CCCN2C(=O)[C@H](NC(=O)[C@H](NC(=O)[C@@H](NC(=O)[C@H](NC(=O)CCCC(C)C)C(C)C)[C@@H](C)O)C(C)C)C(C)C)[C@@H](C)CC)[C@@H](C)OC(=O)[C@H](C(C)C)NC1=O [Compound 46, [D-Val^11]-KF] | 3.3 µM | 6.77E−06 Molar | ≥ 6.77 µM | 1500 nM | ≥ 6.77 µM | 3.55E−06 Molar | 1350 nM | 5.62 µM | 2.75E−06 Molar | 2430 nM | ≥ 6.77 µM | 6.77E−06 Molar | 4.61 µM | 6.77E−06 Molar | ≥ 6.77 µM | 2420 nM | ≥ 6.77 µM | 6.77E−06 Molar | 2500 nM | ≥ 6.77 µM | TGI LN-caP [6]: 6.77E−06 Molar; TGI A-549 [8]: 6.77E−06 Molar; GI50 [8]: 3.67 µM; CC50 [8]: ≥ 6.77 µM; GI50 [9]: 1670 nM; TGI IGROV-ET [9]: 3.62E−06 Molar; CC50 [9]: ≥ 6.77 µM; GI50 [10]: 3.04 µM; TGI K-562 [10]: 6.77E−06 Molar; CC50 [10]: ≥ 6.77 µM; GI50 [11]: ≥ 6.77 µM; TGI MEL-28 [11]: 6.77E−06 Molar; CC50 [11]: ≥ 6.77 µM; GI50 [12]: 3.12 µM; TGI PANC-1 [12]: 6.77E−06 Molar; CC50 [12]: ≥ 6.77 µM; GI50 [13]: 1200 nM; TGI LOVO [13]: 2.30E−06 Molar; CC50 [13]: 4.4 µM
4 | C/C=C1\NC(=O)[C@H](Cc2ccccc2)NC(=O)[C@@H](C(C)C)NC(=O)[C@@H]([C@@H](C)CC)NC(=O)[C@H](NC(=O)[C@H](NC(=O)[C@H](CCCN)NC(=O)[C@H]2CCCN2C(=O)[C@H](NC(=O)[C@@H]2CCCN2C(=O)[C@@H](NC(=O)[C@H](NC(=O)CCCC(C)C)C(C)C)[C@@H](C)O)C(C)C)[C@@H](C)CC)[C@@H](C)OC(=O)[C@H](C(C)C)NC1=O [Compound 47, [Pro^11]-KF] ({Hexanoyl(5-Me)}-[dV]TP[dV][dP][Orn][d(aIle)][d(aThr)][d(aIle)][dV]F[Dhb]V; ester 8-C) | 6.78 µM | 6.78E−06 Molar | 6.78 µM | 6780 nM | 6.78 µM | 6.78E−06 Molar | 6780 nM | 6.78 µM | 6.78E−06 Molar | 6780 nM | 6.78 µM | 6.78E−06 Molar | 6.78 µM | 6.78E−06 Molar | 6.78 µM | 3450 nM | 6.78 µM | 6.78E−06 Molar | 6780 nM | 6.78 µM | TGI LN-caP [6]: 6.78E−06 Molar; TGI A-549 [8]: 6.78E−06 Molar; GI50 [8]: 6.78 µM; CC50 [8]: 6.78 µM; GI50 [9]: 6780 nM; TGI IGROV-ET [9]: 6.78E−06 Molar; CC50 [9]: 6.78 µM; GI50 [10]: 6.78 µM; TGI K-562 [10]: 6.78E−06 Molar; CC50 [10]: 6.78 µM; GI50 [11]: 6.78 µM; TGI MEL-28 [11]: 6.78E−06 Molar; CC50 [11]: 6.78 µM; GI50 [12]: 5.63 µM; TGI PANC-1 [12]: 6.78E−06 Molar; CC50 [12]: 6.78 µM; GI50 [13]: 5850 nM; TGI LOVO [13]: 6.78E−06 Molar; CC50 [13]: 6.78 µM
